Values quoted from earlier work as cited in patent publication US9456982B2, “Solid formulations of niacin to counteract cold extremities” (BE-WARM LLC, priority 2014, dated 2016).

Details: therapeutic niacin doses; sometimes longer

- duration of SVFS flush: 15 to 30 min
Structure (SMILES): O=C(O)c1cccnc1 [niacin, pyridine-3-carboxylic acid]
